Experimental findings from ChEMBL document CHEMBL6083255, “Synthesis and biological evaluation of novel isobenzofuran-1(3H)-one derivatives as antidepressant agents” (2024) are described below.

Assay [1] relates to RBL-2H3. As to the kind of experiment: Cytotoxicity against Wistar rat RBL-2H3 cells assessed as cell viability at 125 uM incubated for 24 hrs by MTT assay. In kind it is functional. As to conditions: read-out: Activity. For orientation: Tetrazolium assays rely on reduction of a dye to a coloured formazan, in cell work by metabolically active cells.
Assay [2] addresses Sodium-dependent serotonin transporter (Rattus norvegicus) (UniProt P31652). As to the kind of experiment: Inhibition of SERT in Wistar rat RBL-2H3 cells assessed as decrease in fluorescence intensity at 10 uM preincubated for 2 hrs followed by APP+ addition and measured after 1 hr by fluorescence based assay. To be noted: time 3.0 hrs. Format: cell-based.
Assay [3] has as its system RBL-2H3. As to the kind of experiment: Cytotoxicity against Wistar rat RBL-2H3 cells assessed as cell viability at 25 uM incubated for 24 hrs by MTT assay. To be noted: read-out: Activity. In kind it is functional.
Assay [4] relates to RBL-2H3. As to the kind of experiment: Cytotoxicity against Wistar rat RBL-2H3 cells assessed as cell viability at 5 uM incubated for 24 hrs by MTT assay. In kind it is functional. As to conditions: read-out: Activity.
For assay [5], the system named is RBL-2H3. As to the kind of experiment: Cytotoxicity against Wistar rat RBL-2H3 cells assessed as cell viability at 1 uM incubated for 24 hrs by MTT assay. In kind it is functional. As to conditions: read-out: Activity.
Assay [6] has as its system CHO-K1. As to the kind of experiment: Agonist activity at CCK-B receptor in CHO-K1 cells incubated for 90 sec by microplate reader assay. In kind it is cell-based. As to conditions: Cricetulus griseus.
Assay [7] relates to CHO-K1. The assay can be described thus: Antagonist activity at CCK-B receptor in CHO-K1 cells at 50 uM incubated for 90 sec by microplate reader assay. In kind it is cell-based. To be noted: Cricetulus griseus.
For assay [8], the system named is CHO-K1. The assay can be described thus: Antagonist activity at mu opioid receptor in CHO-K1 cells assessed as intracellular fluorescence intensity at 50 uM incubated for 2 mins by microplate reader assay. Format: cell-based. To be noted: Cricetulus griseus.
The test system of assay [9] is CHO-K1. The assay can be described thus: Agonist activity at mu opioid receptor in CHO-K1 cells assessed as increase in intracellular fluorescence intensity at 50 uM incubated for 90 sec by microplate reader assay. In kind it is cell-based. To be noted: Cricetulus griseus.
For assay [10], the system named is RBL-2H3. As to the kind of experiment: Induction of cell death in Wistar rat RBL-2H3 cells assessed as cell viability over 20 uM by MTT assay. Format: functional, cell-based.
The test system of assay [11] is RBL-2H3. As to the kind of experiment: Cytotoxicity against Wistar rat RBL-2H3 cells assessed as cell viability over 20 uM by MTT assay. In kind it is functional, cell-based.
The test system of assay [12] is CHO-K1. The assay can be described thus: Agonist activity at mu opioid receptor in CHO-K1 cells assessed as increase in intracellular fluorescence intensity at 30 uM incubated for 90 sec by microplate reader assay. Format: cell-based. As to conditions: Cricetulus griseus, filed as agonist.

Activity calls are given as the source filed them. No cut-off for these calls is given here.

Sodium-dependent serotonin transporter (Rattus norvegicus), sequence (P31652 whole entry): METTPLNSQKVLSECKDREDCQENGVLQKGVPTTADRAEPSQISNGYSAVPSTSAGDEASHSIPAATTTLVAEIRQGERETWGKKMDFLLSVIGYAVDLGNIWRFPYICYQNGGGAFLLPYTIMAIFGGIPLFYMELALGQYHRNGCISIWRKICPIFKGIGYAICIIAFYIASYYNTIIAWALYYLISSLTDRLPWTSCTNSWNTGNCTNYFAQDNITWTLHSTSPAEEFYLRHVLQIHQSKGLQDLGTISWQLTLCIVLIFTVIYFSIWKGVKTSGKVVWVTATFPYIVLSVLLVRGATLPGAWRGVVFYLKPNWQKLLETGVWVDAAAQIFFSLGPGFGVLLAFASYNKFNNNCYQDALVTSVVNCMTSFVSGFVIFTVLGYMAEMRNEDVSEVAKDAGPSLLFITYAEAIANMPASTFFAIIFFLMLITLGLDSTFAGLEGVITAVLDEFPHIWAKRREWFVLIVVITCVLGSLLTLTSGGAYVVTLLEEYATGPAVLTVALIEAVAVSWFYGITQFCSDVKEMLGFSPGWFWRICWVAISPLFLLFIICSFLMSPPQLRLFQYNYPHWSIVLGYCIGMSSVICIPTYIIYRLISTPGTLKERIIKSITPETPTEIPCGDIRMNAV

Take `CCN(CC)CC1(c2ccc(C)cc2)OC(=O)c2ccccc21` (stereo not drawn): the viability at 125 µM in the assay on RBL-2H3 [1] was determined as 160%. The result in assay [2] was Active. Besides, the viability at 25 µM in the assay on RBL-2H3 [3] is 123%. In addition, the viability at 5 µM with RBL-2H3 [4] turned out to be 106%. In addition, the viability at 1 µM in the assay with RBL-2H3 [5] stood at 101%.

Turning to `O=C1OC(CN2CCCCCC2)(c2ccccc2)c2ccccc21` (stereo not drawn), the result in the assay with CHO-K1 [6], in the assay with CHO-K1 [7], in the assay on CHO-K1 [8] and with CHO-K1 [9] was inactive. In addition, the viability at 125 µM with RBL-2H3 [1] was 100%. Moreover, the Activity result in [2] is listed as “Active; Activity Stronger Than Fluoxetine”. Moreover, the viability at 25 µM with RBL-2H3 [3] came out at 95.5%. In addition, the viability at 5 µM in the assay on RBL-2H3 [4] is 101%. Also, the viability at 1 µM in the assay on RBL-2H3 [5] was found to be 97.8%.

Consider `CNCCC(Oc1ccc(C(F)(F)F)cc1)c1ccccc1` (stereo not drawn), for which the outcome (with RBL-2H3 [10]; in [2]; in the assay with RBL-2H3 [11]) was Active.

For the molecule `CC1CCCN(CC2(c3ccccc3)OC(=O)c3ccccc32)C1` (stereo not drawn), the viability at 125 µM with RBL-2H3 [1] is 141%. Also, the result in [2] was Active. Moreover, the viability at 25 µM with RBL-2H3 [3] stood at 116%. In the assay on RBL-2H3 [4], the viability at 5 µM was determined as 101%. Also, the viability at 1 µM in the assay on RBL-2H3 [5] was 92.7%.

Take `Cc1ccc(C2(CN3CCCC3)OC(=O)c3ccccc32)cc1` (stereo not drawn): in the assay on RBL-2H3 [1], the viability at 125 µM came out at 122%. In addition, the outcome in assay [2] was Active. Further, the viability at 25 µM in the assay with RBL-2H3 [3] came to 100%. For the same molecule, in the assay on RBL-2H3 [4], the viability at 5 µM was found to be 95.5%. Moreover, in the assay with RBL-2H3 [5], the viability at 1 µM turned out to be 94.8%.

On to `CCOC(=O)C1CCN(CC2(c3ccc(Cl)cc3)OC(=O)c3ccccc32)CC1` (stereo not drawn), for which the viability at 125 µM in the assay with RBL-2H3 [1] is 99%. Also, the result in assay [2] was inactive. In addition, in the assay with RBL-2H3 [3], the viability at 25 µM is 96.4%. For the same molecule, the viability at 5 µM in the assay on RBL-2H3 [4] stood at 97%. Also, in the assay on RBL-2H3 [5], the viability at 1 µM came out at 99%.

For `CC(=O)N1CCN(CC2(c3ccc(C)cc3)OC(=O)c3ccccc32)CC1` (stereo not drawn), in the assay with RBL-2H3 [1], the viability at 125 µM turned out to be 120%. The outcome in assay [2] was Active. The viability at 25 µM in the assay on RBL-2H3 [3] was 119%. Also, the viability at 5 µM in the assay with RBL-2H3 [4] was determined as 97.2%. Further, the viability at 1 µM in the assay on RBL-2H3 [5] amounted to 93.3%.

For `O=C1OC(CN2CCCCCC2)(c2ccc(Cl)cc2)c2ccccc21` (stereo not drawn), in the assay on RBL-2H3 [1], the viability at 125 µM amounted to 144%. Moreover, the outcome in [2] was Active. The viability at 25 µM in the assay on RBL-2H3 [3] was determined as 119%. Also, the viability at 5 µM in the assay with RBL-2H3 [4] amounted to 109%. The viability at 1 µM with RBL-2H3 [5] was determined as 104%.

Consider `CCOC(=O)C1CCN(CC2(c3ccc(C)cc3)OC(=O)c3ccccc32)CC1` (stereo not drawn), for which the viability at 125 µM in the assay with RBL-2H3 [1] came out at 157%. Moreover, the result in assay [2] was inactive. For the same molecule, the viability at 25 µM with RBL-2H3 [3] came out at 125%. For the same molecule, in the assay with RBL-2H3 [4], the viability at 5 µM was 108%. Moreover, in the assay with RBL-2H3 [5], the viability at 1 µM is 102%.

As to `CC(=O)N1CCN(CC2(c3ccccc3)OC(=O)c3ccccc32)CC1` (stereo not drawn), the viability at 125 µM in the assay with RBL-2H3 [1] was determined as 165%. Further, the result in [2] was inactive. For the same molecule, the viability at 25 µM in the assay on RBL-2H3 [3] was found to be 129%. In the assay with RBL-2H3 [4], the viability at 5 µM is 109%. Also, the viability at 1 µM in the assay on RBL-2H3 [5] amounted to 102%.

As for `Cc1ccc(C2(CN3CCCCC3)OC(=O)c3ccccc32)cc1` (stereo not drawn), in the assay on RBL-2H3 [1], the viability at 125 µM was 108%. The result in assay [2] was Active. The viability at 25 µM in the assay with RBL-2H3 [3] worked out at 99%. Also, the viability at 5 µM in the assay on RBL-2H3 [4] stood at 98.4%. Moreover, the viability at 1 µM with RBL-2H3 [5] was determined as 101%.

In the case of `C[C@@H](NC(=O)[C@@H](N)Cc1ccc(O)cc1)C(=O)NCC(=O)N(C)[C@@H](Cc1ccccc1)C(=O)NCCO`, the result with CHO-K1 [12] was Active.

Take `CCN(CC)CC1(c2ccccc2)OC(=O)c2ccccc21` (stereo not drawn): in the assay with RBL-2H3 [1], the viability at 125 µM came to 127%. For the same molecule, the outcome in assay [2] was Active. Also, the viability at 25 µM in the assay with RBL-2H3 [3] worked out at 125%. Moreover, the viability at 5 µM with RBL-2H3 [4] is 113%. Also, the viability at 1 µM in the assay with RBL-2H3 [5] was 106%.

Turning to `CC(=O)N1CCN(CC2(c3ccc(Cl)cc3)OC(=O)c3ccccc32)CC1` (stereo not drawn), in the assay with RBL-2H3 [1], the viability at 125 µM is 141%. In assay [2], the result was Active. Further, the viability at 25 µM in the assay on RBL-2H3 [3] was 125%. Further, in the assay on RBL-2H3 [4], the viability at 5 µM was 106%. Moreover, in the assay on RBL-2H3 [5], the viability at 1 µM amounted to 99.8%.

With `C=CCN1CC[C@]23c4c5ccc(O)c4O[C@H]2C(=O)CC[C@@]3(O)[C@H]1C5`, in the assay on CHO-K1 [8] (filed as antagonist), the outcome was Active.

On to `CCOC(=O)C1CCN(CC2(c3ccccc3)OC(=O)c3ccccc32)CC1` (stereo not drawn), for which, in the assay on RBL-2H3 [1], the viability at 125 µM came to 178%. Further, in [2], the outcome was inactive. Moreover, in the assay with RBL-2H3 [3], the viability at 25 µM was 130%. For the same molecule, the viability at 5 µM with RBL-2H3 [4] is 105%. Also, the viability at 1 µM with RBL-2H3 [5] stood at 99.7%.

As for `O=C1OC(CN2CCCCC2)(c2ccccc2)c2ccccc21` (stereo not drawn), in the assay on RBL-2H3 [1], the viability at 125 µM is 112%. The result in assay [2] was Active. For the same molecule, the viability at 25 µM in the assay on RBL-2H3 [3] was found to be 118%. In the assay with RBL-2H3 [4], the viability at 5 µM came to 102%. Also, the viability at 1 µM in the assay on RBL-2H3 [5] amounted to 99.2%.

Regarding `O=C1OC(CN2CCCC2)(c2ccccc2)c2ccccc21` (stereo not drawn), the viability at 125 µM in the assay on RBL-2H3 [1] turned out to be 181%. Further, the result in assay [2] was Active. Besides, in the assay on RBL-2H3 [3], the viability at 25 µM was determined as 133%. The viability at 5 µM in the assay with RBL-2H3 [4] was determined as 139%. The viability at 1 µM with RBL-2H3 [5] was determined as 119%.

As for `Cc1ccc(C2(CN3CCCCCC3)OC(=O)c3ccccc32)cc1` (stereo not drawn), the viability at 125 µM with RBL-2H3 [1] came to 171%. The result in assay [2] was inactive. The viability at 25 µM in the assay on RBL-2H3 [3] was found to be 140%. Moreover, the viability at 5 µM in the assay on RBL-2H3 [4] worked out at 106%. Moreover, the viability at 1 µM with RBL-2H3 [5] is 98.8%.

Consider `CC1CCCN(CC2(c3ccc(Cl)cc3)OC(=O)c3ccccc32)C1` (stereo not drawn), for which, in the assay on RBL-2H3 [1], the viability at 125 µM amounted to 104%. In addition, in assay [2], the result was Active. Besides, the viability at 25 µM in the assay with RBL-2H3 [3] is 102%. Further, the viability at 5 µM in the assay with RBL-2H3 [4] came to 98%. In addition, the viability at 1 µM in the assay on RBL-2H3 [5] turned out to be 99.2%.

Take `Cc1ccc(C2(CN3CCCC(C)C3)OC(=O)c3ccccc32)cc1` (stereo not drawn): the viability at 125 µM in the assay on RBL-2H3 [1] was determined as 157%. In addition, the outcome in assay [2] was inactive. Moreover, the viability at 25 µM with RBL-2H3 [3] is 121%. In the assay on RBL-2H3 [4], the viability at 5 µM was 101%. The viability at 1 µM with RBL-2H3 [5] came to 97.6%.

Regarding `O=C1OC(CN2CCCCC2)(c2ccc(Cl)cc2)c2ccccc21` (stereo not drawn), the outcome in the assay with CHO-K1 [6], with CHO-K1 [7], with CHO-K1 [8] and with CHO-K1 [9] was inactive. The viability at 125 µM in the assay with RBL-2H3 [1] was 125%. The Activity result in [2] is on record as “Active; Activity Stronger Than Fluoxetine”. Further, the viability at 25 µM in the assay with RBL-2H3 [3] amounted to 107%. Moreover, the viability at 5 µM with RBL-2H3 [4] worked out at 98.1%. Moreover, the viability at 1 µM in the assay on RBL-2H3 [5] came out at 97.5%.
